Reference: publication PMC4157579, “Lysine Acetylation Controls Local Protein Conformation by Influencing Proline Isomerization” (Molecular Cell, 2014)
Ends that are not written are not given here.

T1: Spt7 bromodomain (residues 363–619) (UniProt P35177 363-619)
T1 construct: Spt7, bromodomain construct, amino acids 363-619; also called purified recombinant Spt7 bromodomain; source: recombinant, expressed and purified as described (Boubriak et al., 2009)
T1 sequence (looked up): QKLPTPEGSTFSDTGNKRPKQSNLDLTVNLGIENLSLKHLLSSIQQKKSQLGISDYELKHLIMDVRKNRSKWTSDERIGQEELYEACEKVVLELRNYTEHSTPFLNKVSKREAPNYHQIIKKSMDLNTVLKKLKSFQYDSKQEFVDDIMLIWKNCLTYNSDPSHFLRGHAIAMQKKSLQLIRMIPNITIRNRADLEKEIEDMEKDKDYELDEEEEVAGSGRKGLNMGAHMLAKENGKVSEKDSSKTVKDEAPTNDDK

B1: K14R-K18ac H3 peptide (11–26) with a valine substitution at P16 (peptide, UniProt P61830 12-27, looked up)
peptide: TGGRAVRK(Ac)QLASKAAR
notes: histone H3, residues 11-26; also called K14R-P16V-K18ac peptide; source: synthetic peptide (GL Biochem and Proteogenix)
B2: P16V-substituted K18ac H3 peptide (11–26) (peptide, UniProt P61830 12-27, looked up)
peptide: TGGKAVRK(Ac)QLASKAAR
notes: histone H3, residues 11-26; also called P16V-K18ac peptide; P16V-K18ac; source: synthetic peptide (GL Biochem and Proteogenix)

Assays:
[1] = system: Spt7 bromodomain (residues 363–619); experiment: SPR binding of H3 peptides to immobilized Spt7 bromodomain; parameters: species or system yeast; conditions: for Binding to Spt7 bromodomain: SPR, Biacore T100/T200, 25°C, peptides 1-200 µM in HBS-P+, NTA chip-captured His-tagged bromodomain, 1:1 model, Figure 6A, n = 2–11
Source text: (§1) We developed a second assay that involves monitoring the effect of the P16V substitution on the binding of the Spt7 bromodomain to an H3 peptide modified by acetylation at K14 and/or K18 using surface plasmon resonance (SPR) (Figures 6A, S4A, and S4B) or by pull downs (Figures 6B and S4C). Bromodomains are acetyl-lysine binding domains, found in a number of chromatin-associated proteins ([Taverna et al., 2007]) including Spt7. The function and binding specificity of the Spt7 bromodomain are currently unknown, but it preferentially interacts with hyperacetylated histones in vitro ([Hassan et al., 2007]). […] The binding of the Spt7 bromodomain to the P16V-substituted K18ac peptide improved binding by ∼2-fold. […] We reasoned that this could reflect an effect of the side chain on binding or an influence on the conformation of the A15-P16 bond. […] The corollary of this is that acetylation of K14 would correlate with the A15-P16 bond in the trans configuration, supporting ideas that the peptidyl-prolyl bond conformation is mainly determined by local effects in proteins ([Reimer et al., 1998]).
(§2) Figure 6 K14ac Promotes P16trans (A) Relative binding ± SEM (n = 2–11) assessed by surface plasmon resonance of purified recombinant Spt7 bromodomain (residues 363–619) to the indicated H3 peptides (11–26). (B) Coomassie-stained gel showing a pull-down experiment, quantified relative to the K18ac peptide, with the indicated H3 peptides and the purified recombinant Spt7 bromodomain (n = 3). (C) A chymotrypsin-coupled assay for proline isomers using synthetic hexamers based on GGKAPF-pNA (unmodified). pNA is released by chymotrypsin cleavage only from the trans-proline-containing peptide. (D) K14ac and substitutions at K14 influence isomerization at A15-P16 and pNA release, expressed as mean initial rate ± SEM (n = 4–5) over the first 0.6–10.2 s of the reaction. (E) Schematic showing how K14ac or the K14R substitution influence A15-P16 conformation. (F) Schematic showing how dynamic K14ac influences A15-P16 conformation and K4me3 (K4 and K14 denote that these residues are not trimethylated or acetylated respectively). (G) The balance of positive-acting factors (right panel) and negative-acting factors (left panel) controls levels of K4me3 at individual genes. […] See also Figure S4. […]
(n=5771) with the ratios of H3-normalised K4me3 in the K14A and P16V strains relative to the WT strain. Genes with ratios > 2 (n = 7 and 4 for K14A/WT and P16V/WT respectively) have been removed for clarity. Highlighted are the genes with the 200 highest and lowest ratios selected for further analysis (K14/P16-independent and K14/P16-dependent gene classes respectively). (C) Overlap (%) between the four selected gene classes from Figure S3B and the genes temporally expressed during the yeast metabolic cycle (YMC: OX, oxidative; R/B, reductive building; R/C, reductive charging phase), induced/repressed by the environmental stress response (ESR), classed as ribosomal protein genes (RPGs) or ribosome biogenesis genes (Ribis), or regulated predominantly by SAGA or TFIID. […]
YMC and ESR expression data were taken from (Tu et al., 2005) and (Gasch et al., 2000) respectively. SAGA/TFIID-regulated genes were obtained from (Huisinga and Pugh, […]
Figure S4. (Related to Figure 6)
(A) Surface plasmon resonance (SPR) affinity fits for the indicated H3 peptides encompassing residues 11-26 binding to the Spt7 bromodomain (residues 363-619). Also shown is a typical sensorgram of H3 peptide binding to the Spt7 bromodomain […]
values ± SEM for Spt7 binding to variously-modified H3 peptides. (C) A peptide pull-down experiment with a range of H3 peptides and the WT or substituted Spt7 bromodomain […]
Peptides for bromodomain interaction studies
Peptides were synthesized at GL Biochem (Shanghai) LTD, China and Proteogenix, France.
(§3) Purity was determined with MALDI-TOF mass spectrometry and HPLC and the peptides used […]
The peptide sequences are listed in the […]

[2] = system: Spt7 bromodomain (residues 363–619); experiment: Peptide pull-down with Spt7 bromodomain; format: binding, yeast; conditions: for Binding to Spt7 bromodomain: SulfoLink resin, bromodomain 30 µg/ml, 2 h at 4°C, Coomassie gel, relative to K18ac peptide, Figure 6B, n = 3
Source text: as §1, §2
(n=5771) with the ratios of H3-normalised K4me3 in the K14A and P16V strains relative to the WT strain. Genes with ratios > 2 (n = 7 and 4 for K14A/WT and P16V/WT respectively) have been removed for clarity. Highlighted are the genes with the 200 highest and lowest ratios selected for further analysis (K14/P16-independent and K14/P16-dependent gene classes respectively). […]
as §3

[3] = system: bromodomain carrying alanine substitutions (Y500A/Y520A/N521A); experiment: Peptide pull-down with substituted Spt7 bromodomain; format: binding, yeast; conditions: bromodomain with alanine at Y500, Y520 and N521, Figure S4C
Source text: as §1, with “1998]). […]” for “1998]).”
bin expressed as a proportion of the total K4me3 across the gene. […] P values were calculated from a simulated probability distribution curve. […]
as §3

[4] = molecular target: T1, Spt7 bromodomain (residues 363–619); experiment: SPR; peptides binding to immobilized Spt7 bromodomain; Biacore T100 and T200, 25°C; 1:1 binding model; relative binding; conditions: both partners purified

Molecule	Binding to Spt7 bromodomain [2]	Binding to Spt7 bromodomain [1]	other results
TGGKAVR(Kac)QLASKAARC [P16V-K18ac, H3 peptide (11–26), P16V, acetylated K18]	–	–	Improvement of binding to Spt7 bromodomain on P16V substitution ([1]; P16V-substituted versus K18ac peptide, SPR (text does not say whether SPR or pull-down), 25°C): ~2 fold
TGGKAPRKQLASKAARC [unmodified H3 peptide, H3 peptide (11–26), unmodified, for bromodomain studies]	lack of binding	lack of binding	–
TGG(Kac)APRKQLASKAARC [peptide acetylated at K14, H3 peptide (11–26) acetylated at K14, for bromodomain studies]	lack of binding	lack of binding	–
TGGKAPR(Kac)QLASKAARC [K18ac, H3 peptide (11–26) acetylated at K18]	specifically recognized acetylated K18	specifically recognized acetylated K18	Binding to substituted Spt7 bromodomain [3]: lack of binding; Enrichment of binding over the unmodified peptide ([2]; WT versus Y500A/Y520A/N521A bromodomain, Figure S4C): enriched
TGG(Kac)APR(Kac)QLASKAARC [peptide acetylated at both K14 and K18]	–	binding to the Spt7 bromodomain similar to the P16V-K18ac peptide	–
TGGRAVR(Kac)QLASKAARC [valine substitution at P16 in the K14R-K18ac peptide]	–	restored binding at levels between the P16V-K18ac and K18ac peptides	–
TGGRAPR(Kac)QLASKAARC [K14R-K18ac, H3 peptide (11–26), K14R, acetylated K18]	–	no binding was observed	–
B1	–	–	binding result [4]: binds
B2	–	–	fold change of binding against the K18ac peptide [4]: ~2 fold
